From US20040229881A1, “Methods of use of antimicrobial compounds against pathogenic mycoplasma bacteria” (SmithKline Beecham Corporation, priority 1999, published 2004)
Converted amounts (≈) assume the structure as drawn. Like-named read-outs stand apart in the source and are kept apart here.

What was measured:
Format in all cases: cell-based
[1] = test system: M. hominis (Mh); test: MIC by micro-broth dilution, M. hominis; settings: 49 isolates, SP4 medium
Protocol: (§1) Organisms used in the analyses included Mycoplasma pneumoniae (MPN), M. hominis (Mh), M. fermentans (Mf), M. genitalium (Mg), M. penetrans (Mp) and Ureaplasma urealyticum (Uu). Minimum Inhibitory Concentrations (MICs) were determined using a micro-broth dilution method. Assays for Ureaplasma urealyticum were performed in 10B media and all other mycoplasma assays were carried out in SP4 medium.

[2] = test system: M. penetrans (Mp); test: MIC by micro-broth dilution, M. penetrans; settings: 1 isolate, SP4 medium; for MIC: read-out: MICs for Mp
Protocol: as §1

[3] = test system: M. genitalium (Mg); test: MIC by micro-broth dilution, M. genitalium; settings: Mycoplasmoides genitalium, 2 isolates, one line per isolate, SP4 medium, read-out: MICs for Mg
Protocol: as §1

[4] = test system: M. fermentans (Mf); test: MIC by micro-broth dilution, M. fermentans; settings: 19 isolates, SP4 medium
Protocol: as §1

[5] = test system: Ureaplasma urealyticum (Uu); test: MIC by micro-broth dilution, Ureaplasma urealyticum
Protocol: as §1

[6] = test system: Mycoplasma pneumoniae (MPN); test: MIC by micro-broth dilution, Mycoplasma pneumoniae
Protocol: as §1

[7] = Metamycoplasma hominis, read-out: MIC 90
[8] = Mycoplasmopsis fermentans, read-out: MIC 90
[9] = Uu, 99 isolates, 10B media, read-out: MIC 90
[10] = MPN, 103 isolates, SP4 medium, read-out: MIC 90

Row | SMILES | MIC90 [1, 7] | MIC [2] | MIC [3] | MIC90 [4, 8] | MIC90 [5, 9] | MIC90 [6, 10] | MIC90 [5] | MIC90 [6] | MIC90 [1] | MICs for Mp [2] | MIC90 [4]
1 | C[C@H]1COc2c(N3CCN(C)CC3)c(F)cc3c(=O)c(C(=O)O)cn1c23 [Lev, levofloxacin] | 0.25 µg/mL (≈ 0.692 µM) | 0.031 µg/mL (≈ 0.0858 µM) | 0.5 µg/mL (≈ 1.38 µM) | 0.031 µg/mL (≈ 0.0858 µM) | 1 µg/mL (≈ 2.77 µM) | 0.5 µg/mL (≈ 1.38 µM) | – | – | – | – | –
2 | CC[C@H]1OC(=O)[C@H](C)[C@@H](O[C@H]2C[C@@](C)(OC)[C@@H](O)[C@H](C)O2)[C@H](C)[C@@H](O[C@@H]2O[C@H](C)C[C@H](N(C)C)[C@H]2O)[C@](C)(OC)C[C@@H](C)C(=O)[C@H](C)[C@@H](O)[C@]1(C)O [Clar, clarithromycin] | – | ≤ 0.008 µg/mL | ≤ 0.008 µg/mL | 64 µg/mL (≈ 85.6 µM) | 0.063 µg/mL (≈ 0.0842 µM) | ≤ 0.008 µg/mL | – | – | – | – | –
3 | CO/N=C1\CN(c2nc3c(cc2F)c(=O)c(C(=O)O)cn3C2CC2)CC1CN (racemic) [Gem, (R,S)-7-(3-aminomethyl-4-methoxyiminopyrrolidin-1-yl)-1-cyclopropyl-6-fluoro-4-oxo-1,4-dihydro-1,8-naphthyridine-3-carboxylic acid] | ≤ 0.008 µg/mL | ≤ 0.008 µg/mL | 0.063 µg/mL (≈ 0.162 µM) | ≤ 0.008 µg/mL | 0.25 µg/mL (≈ 0.642 µM) | 0.125 µg/mL (≈ 0.321 µM) | – | – | – | – | –
4 | CN(C)[C@@H]1C(O)=C(C(N)=O)C(=O)[C@@]2(O)C(O)=C3C(=O)c4c(O)cccc4[C@@](C)(O)[C@H]3C[C@@H]12 [Tet, tetracycline] | 32 µg/mL (≈ 72 µM) | 0.125 µg/mL (≈ 0.281 µM) | 0.063 µg/mL (≈ 0.142 µM) | 0.063 µg/mL (≈ 0.142 µM) | – | – | 1 µg/mL (≈ 2.25 µM) | 0.25 µg/mL (≈ 0.563 µM) | – | – | –
5 | N[C@@H]1[C@H]2CN(c3nc4c(cc3F)c(=O)c(C(=O)O)cn4-c3ccc(F)cc3F)C[C@@H]12 [Trov, trovafloxacin] | – | – | – | – | – | – | – | – | 0.031 µg/mL (≈ 0.0745 µM) | ≦0.008 ug/ml | 0.016 µg/mL (≈ 0.0384 µM)
6 | CCC[C@@H]1C[C@@H](C(=O)N[C@@H]([C@H]2O[C@H](SC)[C@H](O)[C@@H](O)[C@H]2O)[C@H](C)Cl)N(C)C1 [Clin, clindamycin] | – | – | – | – | – | – | – | – | ≦0.008 ug/ml | ≦0.008 ug/ml | 0.031 µg/mL (≈ 0.0729 µM)
7 | Cc1c(F)c(N2CCNC(C)C2)cc2c1c(=O)c(C(=O)O)cn2C1CC1 (stereo not shown) [Grep, grepafloxacin] | 0.031 µg/mL (≈ 0.0863 µM) | 0.016 µg/mL (≈ 0.0445 µM) | 0.125 µg/mL (≈ 0.348 µM) | 0.016 µg/mL (≈ 0.0445 µM) | 1 µg/mL (≈ 2.78 µM) | 0.125 µg/mL (≈ 0.348 µM) | – | – | – | – | –
8 | CC[C@H]1OC(=O)[C@H](C)[C@@H](O[C@H]2C[C@@](C)(OC)[C@@H](O)[C@H](C)O2)[C@H](C)[C@@H](O[C@@H]2O[C@H](C)C[C@H](N(C)C)[C@H]2O)[C@](C)(O)C[C@@H](C)CN(C)[C@H](C)[C@@H](O)[C@]1(C)O [Azith, azithromycin] | – | ≤ 0.008 µg/mL | ≤ 0.008 µg/mL | 2 µg/mL (≈ 2.67 µM) | 4 µg/mL (≈ 5.34 µM) | ≤ 0.008 µg/mL | – | – | – | – | –
